# “Also recorded” adds a separate entry of the source.
# Key:
# [1] = In vivo test of acute T26A toxicity; design: species or system mice; conditions: 100 uL intraperitoneal
# Protocol: All mice were male. They received one intraperitoneal injection. The injected volume was 100 uL to all of them, 14 hours after injection, they were all alive, and moved and acted normally.
# [2] = Systemic BP after IV injection in anesthetized WKY and SHR rats; format: in vivo
# Protocol: The effect of T26 IV injections on systemic BP in anesthetized rats of a control strain (WKY) and the Spontaneously Hypertensive Rat (SHR) strain was evaluated.
# [3] = Chronic oral tolerability: metabolic cages and post-mortem H&E histology; format: in vivo, mice; conditions: for pathological damage to the gastrointestinal tract: H&E stained tissues
# Protocol: The mice described in FIGS. 17-19 were studied in metabolic cages. Six days after they adjusted to the caged condition on regular diet and water, regular drinking water, or vehicle (2% DMSO and 2% cremophor) in drinking water, or 2 mM T26A in drinking water was administered for 16 days. Their water and food intake, weight body and urine volume were recorded daily. Results are shown graphically in FIG. 20.
# FIG. 21 provides results of post-mortem studies on the mice of FIGS. 17-19 administered either regular drinking water, or vehicle (2% DMSO and 2% cremophor) in drinking water, or 2 mM T26A in drinking water for 16 days. At the end of experiments, we isolated tissues from the mice and made H&E stained slides of tissues and examined the tissues microscopically.
# [4] = 2 mM in drinking water, 16 days
compound,measurement,setting,value
[N-]=[N+]=NCCOCCOCCNC(=O)c1ccc(Nc2nc(NCCOCCOCCNC(=O)c3ccccc3)nc(Nc3ccc(O)cc3)n2)cc1 [T26A],Condition,"[1]; 6 mM, 3% DMSO, 3% Cremophor in water",Appeared normal.
same,Condition,"[1]; 25 mM, 5% DMSO, 5% Cremophor in water","More actively than mice #1,; also recorded: More active than mice #1, #4"
same,Condition,[1]; 250 mM in 100% DMSO,Rarely moved for the first
same,systemic blood pressure,[2],reduced the blood pressure of both rats
same,"effects on water and food intake, body weight, daily urine volume",[3]; [4],did not have any observable effects; also recorded: does not have any apparent effects
same,pathological damage to the gastrointestinal tract,[3]; [4],did not cause any pathological damage
same,pathological damage to the gastrointestinal tract,"[3]; 2 mM in drinking water, 16 days, listed as T26",does not cause any pathological damage
same,toxicity on chronic oral basis,[3]; doses sufficient to raise plasma and urinary PGE2,non-toxic

# Source: patent US9144573B2, “Prostaglandin transporter inhibitors” (Albert Einstein College of Medicine of Yeshiva University, priority 2006, dated 2015)
